Experiments:
[1] = Plasma protein binding assay (rapid equilibrium device); format: in vitro ADME; details: guinea pig plasma, equilibrium dialysis 4 h at 37 °C, read-out: fraction bound (converted)
Procedure: Plasma was freshly prepared by centrifugation of guinea pig blood for 10 min at 1900 g in K3-EDTA (Ethylenediaminetetraacetic acid) coated tubes. The plasma protein binding of compounds was assessed at 5 μM concentrations as described by Van Liemp et al. 2010 (Van Liemp S, Morrison D, Sysmans L, Nelis P & Mortishire-Smith R (2010). Development and Validation of a Higher-Throughput Equilibrium Dialysis Assay for Plasma Protein Binding. Journal of the Association for Laboratory Automation, 2010, in press) using a rapid equilibrium device (RED). Briefly, guinea pig plasma was mixed with 5 μM test compound and then applied to the RED. Equilibrium was achieved after 4 h incubation at 37° C. Compound concentrations in the buffer and plasma compartment of the device were measured by LC-MS/MS.

CYP2C9 = CYP2C9 (Homo sapiens, UniProt P11712); experiment: Cytochrome P450 inhibition, Protocol A, cDNA expressed proteins, fluorogenic substrate; format: in vitro ADME; details: % inhibition at 10 μM; substrate MFC; cDNA expressed protein
Chain of CYP2C9 (P11712 whole entry): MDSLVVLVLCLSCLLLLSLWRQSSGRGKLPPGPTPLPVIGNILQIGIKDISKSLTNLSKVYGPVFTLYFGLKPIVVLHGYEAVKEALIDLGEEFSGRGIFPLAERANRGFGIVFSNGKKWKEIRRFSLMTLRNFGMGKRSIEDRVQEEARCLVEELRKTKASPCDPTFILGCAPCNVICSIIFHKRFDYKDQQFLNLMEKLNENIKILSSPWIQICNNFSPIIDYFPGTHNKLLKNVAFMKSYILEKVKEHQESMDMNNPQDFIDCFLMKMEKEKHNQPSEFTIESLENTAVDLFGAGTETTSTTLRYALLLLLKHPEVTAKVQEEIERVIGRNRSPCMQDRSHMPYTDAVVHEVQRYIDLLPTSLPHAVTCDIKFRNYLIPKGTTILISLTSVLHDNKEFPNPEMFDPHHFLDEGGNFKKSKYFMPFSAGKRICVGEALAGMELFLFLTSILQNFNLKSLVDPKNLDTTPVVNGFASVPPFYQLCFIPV
How it was run: (§1)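 cDNA-expressed enzymes with fluorogenic substrates (three separate ones for CYP3A4) in sodium/potassium buffer pH 7.4 plus NADPH-generating system. Compounds at 1 nM to 10 μM final, prewarmed 5 min at 37° C, reaction started with NADP+, stopped, then fluorescence measured.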

CYP1A2 = molecular target: T1, CYP1A2 (Homo sapiens, UniProt P05177); experiment: as above; format: in vitro ADME; details: % inhibition at 10 μM; substrate CEC; cDNA expressed protein
T1 sequence (P05177 1-516): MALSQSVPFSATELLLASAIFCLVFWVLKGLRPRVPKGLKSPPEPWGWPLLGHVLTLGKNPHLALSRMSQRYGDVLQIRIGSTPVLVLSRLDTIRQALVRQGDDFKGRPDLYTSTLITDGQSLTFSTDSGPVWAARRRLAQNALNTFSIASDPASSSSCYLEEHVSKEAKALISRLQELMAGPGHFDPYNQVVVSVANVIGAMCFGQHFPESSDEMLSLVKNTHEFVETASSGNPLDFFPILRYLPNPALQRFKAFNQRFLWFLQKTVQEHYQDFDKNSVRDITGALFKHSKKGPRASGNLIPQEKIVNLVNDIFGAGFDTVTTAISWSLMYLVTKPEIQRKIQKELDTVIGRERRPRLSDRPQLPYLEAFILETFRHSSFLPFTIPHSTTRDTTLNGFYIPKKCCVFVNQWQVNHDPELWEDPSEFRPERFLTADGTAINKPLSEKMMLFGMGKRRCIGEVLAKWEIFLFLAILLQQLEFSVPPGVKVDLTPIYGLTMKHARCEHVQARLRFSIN
How it was run: as §1

CYP2D6 = CYP2D6 (Homo sapiens, UniProt P10635); experiment: as above; format: in vitro ADME; details: % inhibition at 10 μM; substrate AMMC; cDNA expressed protein
Chain of CYP2D6 (P10635 whole entry): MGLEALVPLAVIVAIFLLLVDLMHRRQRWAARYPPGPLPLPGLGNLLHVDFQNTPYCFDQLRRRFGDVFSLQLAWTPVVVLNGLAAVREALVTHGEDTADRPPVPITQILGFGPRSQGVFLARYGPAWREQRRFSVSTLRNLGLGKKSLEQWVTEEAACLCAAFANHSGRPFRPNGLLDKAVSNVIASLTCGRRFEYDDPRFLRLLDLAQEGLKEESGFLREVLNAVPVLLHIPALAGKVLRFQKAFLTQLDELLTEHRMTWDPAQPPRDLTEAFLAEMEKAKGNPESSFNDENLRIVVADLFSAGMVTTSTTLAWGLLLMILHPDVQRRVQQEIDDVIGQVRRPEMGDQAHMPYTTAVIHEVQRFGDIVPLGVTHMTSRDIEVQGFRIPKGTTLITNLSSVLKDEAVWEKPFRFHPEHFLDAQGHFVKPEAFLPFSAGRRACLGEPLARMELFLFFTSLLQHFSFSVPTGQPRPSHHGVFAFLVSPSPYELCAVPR
How it was run: as §1

[2] = Liver metabolic stability assay, mLM; format: in vitro ADME; details: mouse liver microsomes, 1 mg protein/ml, 5 μM test compound, 15 min, 37 °C
Procedure: Liver preparations (microsomal fractions) were obtained from BD Gentest (San Jose, Calif., US). Metabolic stability was assessed using the following assay conditions. […] The mixture was pre-incubated at 37° C. for 5 min and the enzymatic reaction was started by addition of 5 μM test compound. After 0 (control) and 15 minutes (min), the reactions were terminated by addition of […] (500 μl). The precipitated material was removed by centrifugation at 1200 g for 10 min. The supernatant was analysed by LC-MS/MS on a ThermoFinnigan LCQ Deca XP ion-trap mass spectrometer equipped with an atmospheric pressure chemical ionisation source. Calculation of %-compound remaining was as described by Kantharaj et al. 2003 ((Kantharaj E., Tuytelaars A, Proost P E A, Ongel Z, van […] (2003). Simultaneous measurement of drug metabolic stability and identification of metabolites using ion-trap mass spectrometry.

SMILES	melting point [°C]	fraction unbound at 4 h, 5 μM [1]	hCYP2C9_MFC_Pct_Inh (CYP2C9) [%]	hCYP1A2_CEC_Pct_Inh (CYP1A2) [%]	hCYP2D6_AMMC_Pct_Inh (CYP2D6) [%]	%-compound metabolised Met_mLM [2] [%]
CC(=O)c1ccc(C2=NCc3cccc(Cl)c3-n3cccc32)cc1 [Compound 15, 1-[4-(10-chloro-6H-pyrrolo[1,2-a][1,4]benzodiazepin-4-yl)phenyl]-ethanone]	171.4 to 171.8	0.0152	60	38	63	
CC(=O)c1cccc(C2=NCc3c(Cl)cccc3-n3cccc32)c1 [Compound 16, 1-[3-(7-chloro-6H-pyrrolo[1,2-a][1,4]benzodiazepin-4-yl)phenyl]-ethanone]			84	55	55	97
CC(=O)c1cc(C2=NCc3c(Cl)cccc3-n3cccc32)ccc1F [Compound 19, 1-[5-(7-chloro-6H-pyrrolo[1,2-a][1,4]benzodiazepin-4-yl)-2-fluorophenyl]-ethanone]	146.2 to 147.7		60	44	33	

Now from value to molecule:

melting point [°C]	fraction unbound at 4 h, 5 μM [1]	hCYP2C9_MFC_Pct_Inh (CYP2C9) [%]	hCYP1A2_CEC_Pct_Inh (CYP1A2) [%]	hCYP2D6_AMMC_Pct_Inh (CYP2D6) [%]	%-compound metabolised Met_mLM [2] [%]	SMILES
215.2 to 216		43	18	20		CC(=O)c1ccc(C2=NCc3c(F)cccc3-n3cccc32)cc1 [Compound 20, 1-[4-(7-fluoro-6H-pyrrolo[1,2-a][1,4]benzodiazepin-4-yl)phenyl]-ethanone]
250.2 to 254.2		85	20	53	37	CC(=O)c1ccc(C2=NCc3c(Cl)cc(Cl)cc3-n3cccc32)cc1 [Compound 22, 1-[4-(7,9-dichloro-6H-pyrrolo[1,2-a][1,4]benzodiazepin-4-yl)phenyl]-ethanone]
226.9 to 230		54	18	3		CC(=O)c1ccc(C2=NCc3c(F)cc(F)cc3-n3cccc32)cc1 [Compound 24, 1-[4-(7,9-difluoro-6H-pyrrolo[1,2-a][1,4]benzodiazepin-4-yl)phenyl]-ethanone]

Reference: US9040523B2, “Antifungal 5,6-dihydro-4H-pyrrolo[1,2-α][1,4]-benzodiazepines and 6H-pyrrolo[1,2-α][1,4]benzodiazepines substituted with benzene derivatives” (JANSSEN PHARMACEUTICA NV, priority 2010, dated 2015)
